Source: patent publication US5846936A, “Growth hormone releasing factor analogs” (Roche Vitamins Inc., priority 1995, dated 1998)
Where a SMILES comes first, the peptide text is derived from it. Where no end group is shown, it is not given here. [ ]: non-standard residue; d: D form. The star is where a group is joined. Desaminotyrosyl = O=C(CCc1ccc(O)cc1)*

Key:
[1] = system: rat pituitary cells; format: cell-based
Experimental: The biological activity of the novel peptides were compared with that of a synthetic standard of the natural sequence of GRF(1-44)-NH2 (SEQ ID NO: 1-NH2) which was isolated from a human pancreatic tumor of an individual suffering from acromegaly (Salk Institute standard hp-GRF-NH2 (NL-A-10)). The assay for biological activity, which is based on the ability to stimulate production of growth hormone in rat pituitary cells in tissue culture, was performed in the following manner. Pituitaries from 30-40 male Sprague-Dawley rats (175 g) were removed aseptically after decapitation. The anterior lobes were collected, washed 3 times in sterile Hepes buffer (0.025M)(pH 7.35) and dispersed at 37° C. in 20-30 ml Hepes buffer (pH 7.35) containing collagenase (4 mg per ml) and Dispase (Protease grande II, 2 mg per ml). After gentle 80 min. vortexing and trituration by Pasteur pipette, the dispersed cells were separated by centrifugation (150×g, 4 min.) and re-suspended in Hepes buffer containing neuraminidase (4 mg/ml), and […] ethylenediaminetetraacetic acid (EDTA) disodium salt pH 7.35, for 10 min. The cells were washed twice with plating medium and plated on multiwell-plates (1.5×10^5 cells per ml) using the following defined medium: F-12/DMEM/BGJ(6:3:1) (Gibco: 430-1700/430-1600/320-2591) with 2 g BSA/L., 2.38 g Hepes/L.,50 mg Gentamycin/L (Schering Co.). The medium in each well was supplemented either with the novel peptide or natural GRF(1-44)-NH2 (SEQ ID NO: 1-NH2) at concentrations ranging from 3.1 to 200 fmol. per ml. of medium. Control wells contained no supplement. Plating was done with this medium added with 2% fetal calf serum to ensure rapid fixation of the cells. On the fourth day the cells were washed twice with the defined medium without fetal calf serum. Finally […] of defined medium was added to each well plus […] of the same medium containing each individual treatment, in triplicate. After 3 hours of incubation the medium was collected and diluted as required to conduct radioimmunoassay (RIA) for rat growth hormone. RIAs were conducted using Sinha's anti-murine GH immune serum and procedures according to the National Pituitary Agency using protein A to precipitate antibody antigen complex.

[2] = Half-life stability of GRF analogs in aqueous solution by reverse phase HPLC; format: physicochemical; conditions: aqueous buffer pH 7.40 (0.25M Na2HPO4/H3PO4, 1.0 mM NaN3), 37° C., 0.15 mg/mL
Experimental: Half-life stability of GRF analogs in aqueous solution was determined by reverse phase HPLC at 37° C. GRF analogs were prepared as described above. GRF analogs were dissolved in […] of H2 O and then taken up in 1.0 mL of buffer solution (pH 7.40) containing 0.25M Na2 HPO4 /H3 PO4 and 1.0 mM NaN3. The concentration of the GRF analogs was 0.15 mg/mL. The HPLC system was a Laboratory Data Control (LDC) HPLC with a Waters C-18 column (3.9×300 mm, 10μ). The detector was a LDC Spectromonitor III and the gradient delivery system was a Constametric II. Mobile phase--(A) 0.025% TFA in H2 O, (B) 0.025% TFA in acetonitrile. Gradient was 0-37% (B) in 15 minutes for SEQ ID NO: 8-NH2 where Xaa^1 is desNH2 Tyr and Xaa^2 is D-Ala and SEQ ID NO: 9-NH2 where Xaa^1 is desNH2 Tyr and Xaa^2 is D-Ala; 0-35% (B) in 15 minutes for SEQ ID NO: 35-NH2 where Xaa^1 is desNH2 Tyr and Xaa^2 is D-Ala; and 0-36% (B) in 15 minutes for SEQ ID NO: 10-NH2 where Xaa^1 is desNH2 Tyr and Xaa^2 is D-Ala. Flow rate for all gradients was 2 ml/minute. Detection was at 206 nm using a UV detector.

| Compound | Potency of GRF Analogs Relative to GRF(1-44)-NH2 (SEQ ID NO: 1-NH2) [1] | HALF-LIFE t(1/2) [2] |
| --- | --- | --- |
| CC[C@H](C)[C@H](NC(=O)[C@H](C)NC(=O)[C@H](CC(=O)O)NC(=O)[C@@H](C)NC(=O)CCc1ccc(O)cc1)C(=O)N[C@@H](Cc1ccccc1)C(=O)N[C@H](C(=O)N[C@@H](CCC(N)=O)C(=O)N[C@@H](CO)C(=O)N[C@@H](Cc1ccc(O)cc1)C(=O)N[C@@H](CCCNC(=N)N)C(=O)N[C@@H](CCCCN)C(=O)N[C@H](C(=O)N[C@@H](CC(C)C)C(=O)N[C@@H](C)C(=O)N[C@@H](CCC(N)=O)C(=O)N[C@@H](CC(C)C)C(=O)N[C@@H](CO)C(=O)N[C@@H](C)C(=O)N[C@@H](CCCNC(=N)N)C(=O)N[C@@H](CCCCN)C(=O)N[C@@H](CC(C)C)C(=O)N[C@@H](CC(C)C)C(=O)N[C@@H](CCC(N)=O)C(=O)N[C@@H](CC(=O)O)C(=O)N[C@H](C(=O)N[C@@H](CC(C)C)C(=O)N[C@@H](CO)C(=O)N[C@@H](CCCNC(=N)N)C(=O)N[C@@H](CCC(N)=O)C(=O)N[C@@H](CCC(N)=O)C(=O)NCC(=O)O)[C@@H](C)CC)C(C)C)[C@@H](C)O [SEQ ID NO: 31-OH] (Desaminotyrosyl-[dA]DAIFTQSYRKVLAQLSARKLLQDILSRQQG-OH) | 4.20 | – |
| CC[C@H](C)[C@H](NC(=O)[C@H](C)NC(=O)[C@H](CC(=O)O)NC(=O)[C@@H](C)NC(=O)CCc1ccc(O)cc1)C(=O)N[C@@H](Cc1ccccc1)C(=O)N[C@H](C(=O)N[C@@H](CCC(N)=O)C(=O)N[C@@H](CO)C(=O)N[C@@H](Cc1ccc(O)cc1)C(=O)N[C@@H](CCCNC(=N)N)C(=O)N[C@@H](CCCCN)C(=O)N[C@H](C(=O)N[C@@H](CC(C)C)C(=O)N[C@@H](C)C(=O)N[C@@H](CCC(N)=O)C(=O)N[C@@H](CC(C)C)C(=O)N[C@@H](CO)C(=O)N[C@@H](C)C(=O)N[C@@H](CCCNC(=N)N)C(=O)N[C@@H](CCCCN)C(=O)N[C@@H](CC(C)C)C(=O)N[C@@H](CC(C)C)C(=O)N[C@@H](CCC(N)=O)C(=O)N[C@@H](CC(=O)O)C(=O)N[C@H](C(=O)N[C@@H](CCSC)C(=O)N[C@@H](CO)C(=O)N[C@@H](CCCNC(=N)N)C(N)=O)[C@@H](C)CC)C(C)C)[C@@H](C)O [SEQ ID NO: 10-NH2] (Desaminotyrosyl-[dA]DAIFTQSYRKVLAQLSARKLLQDIMSR-NH2) | 4.57 | 122 h |
| CC[C@H](C)[C@H](NC(=O)[C@H](C)NC(=O)[C@H](CC(=O)O)NC(=O)[C@@H](C)NC(=O)CCc1ccc(O)cc1)C(=O)N[C@@H](Cc1ccccc1)C(=O)N[C@H](C(=O)N[C@H](C(=O)N[C@@H](CO)C(=O)N[C@@H](Cc1ccc(O)cc1)C(=O)N[C@@H](CCCNC(=N)N)C(=O)N[C@@H](CCCCN)C(=O)N[C@H](C(=O)N[C@@H](CC(C)C)C(=O)N[C@@H](C)C(=O)N[C@@H](CCC(N)=O)C(=O)N[C@@H](CC(C)C)C(=O)N[C@@H](CO)C(=O)N[C@@H](C)C(=O)N[C@@H](CCCNC(=N)N)C(=O)N[C@@H](CCCCN)C(=O)N[C@@H](CC(C)C)C(=O)N[C@@H](CC(C)C)C(=O)N[C@@H](CCC(N)=O)C(=O)N[C@@H](CC(=O)O)C(=O)N[C@H](C(=O)N[C@@H](CCSC)C(=O)N[C@@H](CO)C(=O)N[C@@H](CCCNC(=N)N)C(N)=O)[C@@H](C)CC)C(C)C)[C@@H](C)O)[C@@H](C)O [SEQ ID NO: 8-NH2] (Desaminotyrosyl-[dA]DAIFTTSYRKVLAQLSARKLLQDIMSR-NH2) | 3.77 | 169 h |
| CC[C@H](C)[C@H](NC(=O)[C@H](C)NC(=O)[C@H](CC(=O)O)NC(=O)[C@@H](C)NC(=O)[C@@H](N)Cc1c[nH]cn1)C(=O)N[C@@H](Cc1ccccc1)C(=O)N[C@H](C(=O)N[C@@H](CCC(N)=O)C(=O)N[C@@H](CO)C(=O)N[C@@H](Cc1ccc(O)cc1)C(=O)N[C@@H](CCCNC(=N)N)C(=O)N[C@@H](CCCCN)C(=O)N[C@H](C(=O)N[C@@H](CC(C)C)C(=O)N[C@@H](C)C(=O)N[C@@H](CCC(N)=O)C(=O)N[C@@H](CC(C)C)C(=O)N[C@@H](CO)C(=O)N[C@@H](C)C(=O)N[C@@H](CCCNC(=N)N)C(=O)N[C@@H](CCCCN)C(=O)N[C@@H](CC(C)C)C(=O)N[C@@H](CC(C)C)C(=O)N[C@@H](CCC(N)=O)C(=O)N[C@@H](CC(=O)O)C(=O)N[C@H](C(=O)N[C@@H](CC(C)C)C(=O)N[C@@H](CO)C(=O)N[C@@H](CCCNC(=N)N)C(=O)N[C@@H](CCC(N)=O)C(=O)N[C@@H](CCC(N)=O)C(=O)NCC(=O)O)[C@@H](C)CC)C(C)C)[C@@H](C)O [SEQ ID NO: 17-OH] (H-H[dA]DAIFTQSYRKVLAQLSARKLLQDILSRQQG-OH) | 3.23 | – |
| HADAIFTQSYRKVLAQLSARKLLQDILSRQQG [SEQ ID NO: 23-OH] | 2.96 | – |
| CC[C@H](C)[C@H](NC(=O)[C@H](C)NC(=O)[C@H](CC(=O)O)NC(=O)[C@@H](C)NC(=O)CCc1ccc(O)cc1)C(=O)N[C@@H](Cc1ccccc1)C(=O)N[C@H](C(=O)N[C@@H](CO)C(=O)N[C@@H](CO)C(=O)N[C@@H](Cc1ccc(O)cc1)C(=O)N[C@@H](CCCNC(=N)N)C(=O)N[C@@H](CCCCN)C(=O)N[C@H](C(=O)N[C@@H](CC(C)C)C(=O)N[C@@H](C)C(=O)N[C@@H](CCC(N)=O)C(=O)N[C@@H](CC(C)C)C(=O)N[C@@H](CO)C(=O)N[C@@H](C)C(=O)N[C@@H](CCCNC(=N)N)C(=O)N[C@@H](CCCCN)C(=O)N[C@@H](CC(C)C)C(=O)N[C@@H](CC(C)C)C(=O)N[C@@H](CCC(N)=O)C(=O)N[C@@H](CC(=O)O)C(=O)N[C@H](C(=O)N[C@@H](CCSC)C(=O)N[C@@H](CO)C(=O)N[C@@H](CCCNC(=N)N)C(N)=O)[C@@H](C)CC)C(C)C)[C@@H](C)O [SEQ ID NO: 9-NH2] (Desaminotyrosyl-[dA]DAIFTSSYRKVLAQLSARKLLQDIMSR-NH2) | 3.55 | – |
| CC[C@H](C)[C@H](NC(=O)[C@H](C)NC(=O)[C@H](CC(=O)O)NC(=O)[C@H](C)NC(=O)[C@@H](N)Cc1ccc(O)cc1)C(=O)N[C@@H](Cc1ccccc1)C(=O)N[C@H](C(=O)N[C@@H](CC(N)=O)C(=O)N[C@@H](CO)C(=O)N[C@@H](Cc1ccc(O)cc1)C(=O)N[C@@H](CCCNC(=N)N)C(=O)N[C@@H](CCCCN)C(=O)N[C@H](C(=O)N[C@@H](CC(C)C)C(=O)NCC(=O)N[C@@H](CCC(N)=O)C(=O)N[C@@H](CC(C)C)C(=O)N[C@@H](CO)C(=O)N[C@@H](C)C(=O)N[C@@H](CCCNC(=N)N)C(=O)N[C@@H](CCCCN)C(=O)N[C@@H](CC(C)C)C(=O)N[C@@H](CC(C)C)C(=O)N[C@@H](CCC(N)=O)C(=O)N[C@@H](CC(=O)O)C(=O)N[C@H](C(=O)N[C@@H](CCSC)C(=O)N[C@@H](CO)C(=O)N[C@@H](CCCNC(=N)N)C(=O)N[C@@H](CCC(N)=O)C(=O)N[C@@H](CCC(N)=O)C(=O)NCC(=O)N[C@@H](CCC(=O)O)C(=O)N[C@@H](CO)C(=O)N[C@@H](CC(N)=O)C(=O)N[C@@H](CCC(N)=O)C(=O)N[C@@H](CCC(=O)O)C(=O)N[C@@H](CCCNC(=N)N)C(=O)NCC(=O)N[C@@H](C)C(=O)N[C@@H](CCCNC(=N)N)C(=O)N[C@@H](C)C(=O)N[C@@H](CCCNC(=N)N)C(=O)N[C@@H](CC(C)C)C(N)=O)[C@@H](C)CC)C(C)C)[C@@H](C)O [SEQ ID NO: 1-NH2, GRF(1-44)-NH2, reference compound] | 1.00 | – |
| HVDAIFTQSYRKVLAQLSARKLLQDILNRQQG [SEQ ID NO: 14-OH] | 3.11 | – |
| HVDAIFTQSYRKVLAQLSARKLLQDILSRQQG [SEQ ID NO: 13-OH] | 2.79 | – |
